Tests used:
Tubulin = Tubulin (Sus scrofa, UniProt P02550+P02554); assay: Inhibition of tubulin polymerization (turbidimetry); format: biochemical, pig; conditions: tubulin 10 μM, 37° C., turbidity at 350 nm
Experimental: Tubulin is purified from pig brains according to the published methods (Shelanski et al., 1973, Proc. Natl, Acad. Sci. USA, 70, 765-768. Weingarten et al., 1975, Proc. Natl, Acad. Sci. USA, 72, 1858-1862). Briefly, the brains are ground and centrifuged in an extraction buffer. The tubulin, contained in the extract supernatant, is subjected to two successive cycles of polymerization at 37° C. and depolymerization at 4° C., before being separated from the MAPs (Microtubule Associated Proteins) by chromatography on a phosphocellulose P11 column (Whatman). The tubulin thus isolated is more than 95% pure. It is stored in a buffer known as RB/2 30% glycerol, the composition of which is MES-NaOH [2-(N-morpholino)ethanesulfonic acid] 50 mM, pH 6.8; MgCl2 0.25 mM; EGTA 0.5 mM; 30% glycerol (v/v), GTP (guanosine 5′-triphosphate) 0.2 mM. The polymerization of the tubulin into microtubules is monitored by turbidimetry as follows; the tubulin is adjusted to a concentration of 10 μM (1 mg/ml) in the RB/2 30% glycerol buffer, to which is added 1 mM GTP and 6 mM MgCl2. The polymerization is initiated by increasing the temperature from 6° C. to 37° C. in a cuvette with a 1 cm optical pathlength, placed in a Uvikon 931 spectrophotometer (Kontron) equipped with a thermostatically-regulated cuvette holder. The increase in the turbidity of the solution is monitored at 350 nm. The products are dissolved at 10 mM in DMSO and added at variable concentrations (0.5 to 10 μM) to the tubulin solution before polymerization. The IC50 value is defined as the concentration of product which inhibits 50% of the rate of polymerization. A product whose IC50 value is less than or equal to 3 μM is considered as very active.

HeLa cells = assay: Inhibition of proliferation of HeLa cells ([14C]-thymidine incorporation); format: cell-based, human
Experimental: The proliferation of HeLa cells is assessed by measuring the incorporation of [^14C]-thymidine in the following way. The HeLa cells (epithelial tumor cells of human origin) are cultured in a DMEM medium (Gibco) which contains 10% fetal calf serum and antibiotics (1% penicillin, 1% streptomycin). To carry out the proliferation test, the cells are inoculated into 96-well cytostar microplates (Amersham), at a rate of 5 000 cells per well. [^14C]-thymidine (0.1 μCi/well) and the products to be assessed are then added. Variable concentrations of product up to 10 μM are used; the DMSO (solvent used to dissolve the products) should not exceed 0.5% in the medium. After incubation for 48 hours at 37° C., the radioactivity incorporated into the cells is measured by counting the plate in a TRI-LUX counter (Wallac). The IC50 value is defined as the concentration of product which reduces the radioactivity by 50% relative to an untreated control. A product whose IC50 value is less than 1 μM is considered as cytotoxic.

HDMEC cells [1] = assay: Inhibition of proliferation of HDMEC cells; format: cell-based; conditions: Homo sapiens
HDMEC cells [2] = assay: Detachment effect on HDMEC endothelial cells; format: cell-based, human; conditions: treatment for two hours
Description: A test to determine the detachment of endothelial cells was established in order to select the products on the basis of their “in vitro” activity. This test for determining the endothelial cell detachment is characterized in that the endothelial cells, inoculated in plates which are coated at the bottom with a binder, e.g., chosen from gelatin, fibronectin or vitronectin, after culturing, are supplemented with a medium containing the test compound, and the cells are then labeled with a fluorescent substance, the cells which become detached are removed by washing and the fluorescence of the remaining cells is counted in a fluorimeter.
This test consists in measuring the detachment of endothelial cells cultured on substrates based on a binder, e.g., chosen from fibronectin, vitronectin and gelatin. […] The fluorescence of the remaining cells is counted in a fluorimeter. […]
The assessment of the detachment of the endothelial cells in vitro is determined in the following way. […] The fluorescence of the cells which remain attached to the substratum of the well is counted using a fluorimeter, Spectrafluor Plus (Tecan, excitation at 485 nm, and emission at 535 nm). The data are the average of six different samples and are expressed as a percentage of the control (untreated cells). […]
The assessment of the detachment of the endothelial cells in vitro is determined in the following way. […]

Tubulin, sequence (P02554 whole entry): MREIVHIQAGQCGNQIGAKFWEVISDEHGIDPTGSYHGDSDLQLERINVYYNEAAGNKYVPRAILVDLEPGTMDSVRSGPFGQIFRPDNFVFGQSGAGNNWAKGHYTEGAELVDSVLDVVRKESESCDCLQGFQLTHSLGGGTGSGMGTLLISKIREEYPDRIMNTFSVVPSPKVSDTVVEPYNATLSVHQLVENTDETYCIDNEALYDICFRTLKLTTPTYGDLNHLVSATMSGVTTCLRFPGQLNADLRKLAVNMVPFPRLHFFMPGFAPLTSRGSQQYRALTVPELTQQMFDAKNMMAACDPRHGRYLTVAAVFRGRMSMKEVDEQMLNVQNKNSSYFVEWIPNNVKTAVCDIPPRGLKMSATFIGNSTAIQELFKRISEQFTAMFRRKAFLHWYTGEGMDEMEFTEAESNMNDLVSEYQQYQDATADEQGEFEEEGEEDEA
Tubulin, sequence (P02550 whole entry): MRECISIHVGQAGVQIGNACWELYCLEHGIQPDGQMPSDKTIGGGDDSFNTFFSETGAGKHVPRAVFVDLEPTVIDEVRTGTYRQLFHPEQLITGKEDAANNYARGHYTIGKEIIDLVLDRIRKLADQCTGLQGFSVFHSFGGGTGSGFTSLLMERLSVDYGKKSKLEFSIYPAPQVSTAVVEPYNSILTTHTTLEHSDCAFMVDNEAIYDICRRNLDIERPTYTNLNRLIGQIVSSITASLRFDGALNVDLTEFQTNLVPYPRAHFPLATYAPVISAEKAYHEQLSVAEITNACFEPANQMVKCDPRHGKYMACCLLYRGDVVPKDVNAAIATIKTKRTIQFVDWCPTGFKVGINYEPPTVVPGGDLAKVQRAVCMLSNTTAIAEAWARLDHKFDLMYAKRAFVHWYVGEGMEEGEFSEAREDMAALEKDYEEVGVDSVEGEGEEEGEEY

Row | Structure (SMILES) | IC50 (Tubulin) | IC50 (HeLa cells; Homo sapiens, HeLa, 48 h) | IC50 (HDMEC cells [1]) | Percentage of detachment of HDMEC cells induced with the compound cited in the example at a concentration of 1 μM (HDMEC cells [2]) | IC50 (HeLa cells; 48 hours) | IC50 (HeLa cells; Homo sapiens, HeLa, 48 hours)
1 | COc1ccc(C2CC2C(=O)c2cc(OC)c(OC)c(OC)c2)cc1O (racemic) [Example 1, [2-(3-Hydroxy-4-methoxyphenyl)cyclopropyl](3,4,5-trimethoxyphenyl)methanone, trans racemate] | 1000 nM | < 1.9 nM | 17 to 18 nM | 36-37% | – | –
2 | COc1cc(C(=O)C2CC2c2ccc(N(C)C)cc2)cc(OC)c1OC (racemic) [Example 2, [2-(4-Dimethylaminophenyl)cyclopropyl](3,4,5-trimethoxyphenyl)methanone, trans racemate] | 2500 nM | 1350 nM | 4000 nM | – | 1450 nM | –
3 | COc1ccc(C2C3C=CC(C3)C2C(=O)c2cc(OC)c(OC)c(OC)c2)cc1O (racemic) [Example 3, [2-(3-Hydroxy-4-methoxyphenyl)bicyclo[2.2.1]hept-4-enyl](3,4,5-trimethoxyphenyl)methanone, trans racemate] | 4500 nM | – | – | – | – | 520 to 1060 nM

— patent US6887904B2, “Substituted arylcycloalkanes, compositions containing them and use thereof” (Aventis Pharma S. A., priority 2001, dated 2005)
